Laboratory results from patent publication US11453697B1, “Cyclic di-nucleotide compounds as sting agonists” (Merck Sharp & Dohme Corp., priority 2015, dated 2022).

What follows are compounds tested on IFN-β secretion in THP1 cells (assay: IFN-β secretion in THP1 cell culture (5 h)). Conditions: not given.
Assay type: cell-based, human
Experimental: The ability of compounds to stimulate the secretion of interferon-beta from THP1 cells was measured using a human IFN-β AlphaLISA kit (Perkin Elmer, Cat. No. AL265F). The basic protocol is as follows:
The cell viability and count was ascertained using a Beckman Coulter V-Cell XR cell counter. The cells suspension was centrifuged at 200×g for 5 min at RT. […] Subsequent liquid transfers were performed using either a Matrix electronic multichannel pipette or an Agilent Bravo Automated Liquid Handling Platform.
The assay was started by dispensing 40 μL of the previously prepared cell suspension into the wells of the plate containing compounds. After 5 h incubation at 37° C., 5% CO2 in a humidified atmosphere, the plate of cells and compounds was centrifuged at 200×g for 5 min at RT. […] To these supernatant-containing wells was added 10 μL of 5× Anti-Analyte Acceptor beads (50 μg/mL of AlphaLISA HiBlock Buffer) and incubated for 30 min at RT while shaking on an orbital plate shaker. To each well was added 10 μL of 5× Biotinylated Antibody Anti-analyte (5 nM in AlphaLISA HiBlock Buffer) and incubated on an orbital plate shaker for 60 min at RT or overnight at 4° C. To each well was added 25 μL of 2× SA-Donor beads (80 μg/mL in AlphaLISA HiBlock Buffer) and incubated for 30-45 min at RT in the dark while shaking on an orbital plate shaker. The plate was then read on a Perkin Elmer Envision (λex=680 nm, λem=[…]). The percent effect of the AlphaLISA signal at each compound concentration was calculated based on 30 uM cGAMP positive controls and 0.3% DMSO negative controls. The plot of percent effect versus the log of compound concentration was fit with a 4-parameter concentration response equation to calculate EC50 values.
Compounds of the disclosure were evaluated for IFN-β secretion in THP1 cell culture as described above.

SMILES	% Effect at 30 μM relative to 2′3′-cGAMP [%]
Nc1nc2c(ncn2[C@@H]2O[C@@H]3COP(=O)(O)O[C@H]4[C@@H](O)[C@H](n5cnc6c(N)ncnc65)O[C@@H]4COP(=O)(O)O[C@@H]2[C@H]3F)c(=O)[nH]1 [Example 52, 2-amino-9-[(5R,7R,8S,12aR,14R,15R,15aS,16S)-14-(6-amino-9H-purin-9-yl)-16-fluoro-2,10,15-trihydroxy-2,10-dioxidooctahydro-12H-5,8-methanofuro[3,2-l][1,3,6,9,11,2,10]pentaoxadiphosphacyclotetradecin-7-yl]-1,9-dihydro-6H-purin-6-one]	143
Nc1nc2c(ncn2[C@@H]2O[C@@H]3COP(=O)(O)O[C@H]4C[C@H](n5cnc6c(N)ncnc65)O[C@@H]4COP(=O)(O)O[C@@H]2C3)c(=O)[nH]1 [Example 27, 2-amino-9-[(5S,7R,8R,12aR,14R,15aS)-14-(6-amino-9H-purin-9-yl)-2,10-dihydroxy-2,10-dioxidooctahydro-12H-5,8-methanofuro[3,2-l][1,3,6,9,11,2,10]pentaoxadiphosphacyclotetradecin-7-yl]-1,9-dihydro-6H-purin-6-one]	164
Nc1nc2c(ncn2[C@@H]2O[C@@H]3COP(=O)(O)OC4C[C@H](n5cnc6c(N)ncnc65)O[C@@H]4COP(=O)(O)OC2C3F)c(=O)[nH]1 (stereo in doubt) [Example 22, 2-amino-9-[(5R,7R,8S,12aR,14R,15aS,16R)-14-(6-amino-9H-purin-9-yl)-16-fluoro-2,10-dihydroxy-2,10-dioxidooctahydro-12H-5,8-methanofuro[3,2-l][1,3,6,9,11,2,10]pentaoxadiphosphacyclotetradecin-7-yl]-1,9-dihydro-6H-purin-6-one]	109
Nc1nc2c(ncn2[C@@H]2O[C@@H]3COP(=O)(O)O[C@H]4[C@@H](O)[C@H](n5cnc6c(N)ncnc65)O[C@@H]4COP(=O)(O)O[C@@H]2[C@H]3O)c(=O)[nH]1 [Example 39, 2-amino-9-[(5R,7R,8R,12aR,14R,15R,15aS,16S)-14-(6-amino-9H-purin-9-yl)-2,10,15,16-tetrahydroxy-2,10-dioxidooctahydro-12H-5,8-methanofuro[3,2-l][1,3,6,9,11,2,10]pentaoxadiphosphacyclotetradecin-7-yl]-1,9-dihydro-6H-purin-6-one]	74
Nc1nc2c(ncn2[C@@H]2O[C@@H]3COP(=O)(O)OC4C(F)[C@H](n5cnc6c(N)ncnc65)O[C@@H]4COP(=O)(O)OC2C3O)c(=O)[nH]1 (stereo in doubt) [Example 2, (5R,7R,8R,12aR,14R,15R,15aR,16R)-7-(2-amino-6-oxo-1,6-dihydro-9H-purin-9-yl)-14-(6-amino-9H-purin-9-yl)-15-fluoro-16-hydroxyoctahydro-12H-5,8-methanofuro[3,2-l] [1,3,6,9,11,2,10]pentaoxadiphosphacyclotetradecine-2,10-diolate 2,10-dioxide]	148
Nc1nc2c(ncn2[C@@H]2O[C@@H]3COP(=O)(O)OC4[C@@H](COP(=O)(O)OC2C3O)O[C@@H](n2cnc3c(N)ncnc32)[C@H]4F)c(=O)[nH]1 (stereo in doubt) [Example 7, (5R,7R,8R,12aR,14R,15S,15aR,16R)-7-(2-amino-6-oxo-1,6-dihydro-9H-purin-9-yl)-14-(6-amino-9H-purin-9-yl)-15-fluoro-16-hydroxyoctahydro-12H-5,8-methanofuro[3,2-l][1,3,6,9,11,2,10] pentaoxadiphosphacyclotetradecine-2,10-diolate 2,10-dioxide]	112

Same assay, conditions: IFN-β secretion in THP1 cell culture, 5 h; compound at 30 μM; percent activation relative to 2′3′-cGAMP

SMILES	% Effect at 30 μM relative to 2′3′-cGAMP [%]
Nc1nc2c(ncn2[C@@H]2O[C@@H]3COP(=O)(S)O[C@H]4[C@@H](O)[C@H](n5ccc6c(N)ncnc65)O[C@@H]4COP(=O)(S)O[C@@H]2C3)c(=O)[nH]1 (stereo partly drawn) [Example 78, 2-amino-9-[(5S,7R,8R,12aR,14R,15R,15aS)-14-(4-amino-7H-pyrrolo[2,3-d]pyrimidin-7-yl)-15-hydroxy-2,10-dioxido-2,10-disulfanyloctahydro-12H-5,8-methanofuro[3,2-l][1,3,6,9,11,2,10]pentaoxadiphosphacyclotetradecin-7-yl]-1,9-dihydro-6H-purin-6-one]	162
Nc1nc2c(ncn2[C@@H]2O[C@@H]3COP(=O)(S)O[C@H]4[C@@H](O)[C@H](n5ccc6c(N)ncnc65)O[C@@H]4COP(=O)(S)O[C@@H]2C3)c(=O)[nH]1 (stereo partly drawn) [Example 80, 2-amino-9-[(5S,7R,8R,12aR,14R,15R,15aS)-14-(4-amino-7H-pyrrolo[2,3-d]pyrimidin-7-yl)-15-hydroxy-2,10-dioxido-2,10-disulfanyloctahydro-12H-5,8-methanofuro[3,2-l][1,3,6,9,11,2,10]pentaoxadiphosphacyclotetradecin-7-yl]-1,9-dihydro-6H-purin-6-one]	234
Nc1nc2c(ncn2[C@@H]2O[C@@H]3COP(=O)(O)O[C@H]4[C@H](F)[C@H](n5cnc6c(N)ncnc65)O[C@@H]4COP(O)(=S)O[C@@H]2[C@@H]3F)c(=O)[nH]1 (single isomer, unassigned) [Example 273]	85
Nc1nc2c(ncn2[C@@H]2O[C@@H]3COP(=O)(S)OC4C5OC[C@]4(COP(=O)(S)OC2C3O)O[C@H]5n2cnc3c(N)ncnc32)c(=O)[nH]1 (single isomer, unassigned) [Example 94]	138
Nc1nc2c(ncn2[C@@H]2O[C@@H]3COP(O)(=S)O[C@H]4[C@H](F)[C@H](n5cnc6c(N)ncnc65)O[C@@H]4COP(O)(=S)O[C@@H]2[C@@H]3F)c(=O)[nH]1 (single isomer, unassigned) [Example 245]	234
Nc1nc2c(ncn2[C@@H]2O[C@@H]3COP(=O)(S)OC4[C@@H](COP(=O)(S)OC2C3O)O[C@@H](n2cnc3c(N)ncnc32)[C@H]4F)c(=O)[nH]1 (single isomer, unassigned) [Example 92]	62
Nc1nc2c(nnn2[C@@H]2O[C@@H]3COP(=O)(S)O[C@H]4[C@H](F)[C@H](n5cnc6c(=O)[nH]cnc65)O[C@@H]4COP(=O)(S)O[C@@H]2[C@H]3F)c(=O)[nH]1 (stereo partly drawn) [Example 348, 5-amino-3-[(5R,7R,8S,12aR,14R,15S,15aR,16S)-15,16-difluoro-2,10-dioxido-14-(6-oxo-1,6-dihydro-9H-purin-9-yl)-2,10-disulfanyloctahydro-12H-5,8-methanofuro[3,2-l][1,3,6,9,11,2,10]pentaoxadiphosphacyclotetradecin-7-yl]-3,6-dihydro-7H-[1,2,3]triazolo[4,5-d]pyrimidin-7-one]	8
Nc1nc2c(ncn2[C@@H]2O[C@@H]3COP(=O)(S)OC4[C@@H](COP(=O)(S)OC2C3O)O[C@@H](n2cnc3c(N)ncnc32)[C@H]4F)c(=O)[nH]1 (single isomer, unassigned) [Example 91]	106
Nc1nc2c(ncn2[C@@H]2O[C@@H]3COP(=O)(S)O[C@H]4[C@H](F)[C@H](n5cnc6c(N)ncnc65)O[C@@H]4COP(=O)(O)O[C@@H]2[C@@H]3F)c(=O)[nH]1 (stereo partly drawn) [Example 143, 2-amino-9-[(5R,7R,8S,12aR,14R,15S,15aR,16R)-14-(6-amino-9H-purin-9-yl)-15,16-difluoro-2,10-dihydroxy-10-oxido-2-sulfidooctahydro-12H-5,8-methanofuro[3,2-l][1,3,6,9,11,2,10]pentaoxadiphosphacyclotetra-decin-7-yl]-1,9-dihydro-6H-purin-6-one]	157
